≈ marks a conversion by molar mass, not a printed value. Where “and” joins values, the source holds several entries; their conditions need not be identical. Equal entries are not always repeated. Where two headings read alike, the source gives them in different places.
Tests used:
[1] = biological target: T1, HSV-1 TK (Human herpesvirus 1, UniProt P0DTH5); test: Competitive inhibition of [3H]-thymidine phosphorylation by partially purified HSV-1 TK; format: biochemical
T1 construct: HSV thymidine kinase (HSV TK) was isolated from HELA (BU25) cells infected with the SW148 strain of HSV-1; made in house; host or cells: HeLa (BU25) thymidine-kinase-deficient cells infected with HSV-1 strain S148/SW148
T1 sequence (P0DTH5 whole entry): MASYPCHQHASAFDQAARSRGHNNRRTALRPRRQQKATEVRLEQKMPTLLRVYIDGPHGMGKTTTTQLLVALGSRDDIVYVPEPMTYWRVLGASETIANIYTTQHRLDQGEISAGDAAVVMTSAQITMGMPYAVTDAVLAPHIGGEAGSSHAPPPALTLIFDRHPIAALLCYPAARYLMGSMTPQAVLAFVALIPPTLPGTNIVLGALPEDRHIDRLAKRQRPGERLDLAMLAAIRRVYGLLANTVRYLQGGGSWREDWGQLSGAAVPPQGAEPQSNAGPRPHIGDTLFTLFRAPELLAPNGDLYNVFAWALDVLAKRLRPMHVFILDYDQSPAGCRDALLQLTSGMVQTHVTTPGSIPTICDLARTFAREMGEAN
Protocol: The Ki's were determined from a plot of the slope of each line versus the concentration of the competitor (D-, L, or D,L-2'CdG) and are summarized below: TABLE 2

[2] = tested on: HSV-1 (strain 377, TK+); test: Antiviral activity against HSV-1; format: cell-based
Protocol: (§1) D-2'-CdG and L-2'-CdG were tested, alongside D,L-2'-CdG, against both HSV-1 (strain 377, TK+; obtained from Dr. Earl Kern, University of Alabama) and HSV-2 (strain MS, TK+; also obtained from Dr. Earl Kern). In these tests (Table 5), Ara-A and acyclovir (ACV) were the positive control drugs. In four tests vs. HSV-1, the antiviral activity (VR) and potency (MIC50) of D-2'-CdG were approximately the same as those of racemic 2-CdG. L-2'-CdG was only modestly active.

[3] = tested on: HSV-2 (strain MS, TK+); test: Antiviral activity against HSV-2; format: cell-based
Protocol: as §1
These compounds were tested against HSV-2(TK^+). The VR of ACV was somewhat higher than the VR values of D-2'-CdG and D,L-2'-CdG, but the values of MIC50 of the two forms of 2'-CdG were lower. In addition, experiments comparing the antiviral activity D-2'-CdG with acyclovir against HSV-1 in human foreskin fibroblasts have shown an even greater potency, in favor of D-2'-CdG.

[4] = tested on: CMV; test: CMV yield reduction in MRC5 cell monolayer cultures (plaque assay); format: cell-based, human CMV; details: for CMV Yield: virus control 5.5
Protocol: (§2) The D- and L-enantiomers of 2'-CdG were prepared from racemic C-2,6-DAPR by an enzymatic method as described above Secrist et al. (J. Med. Chem. 30:746, 1987). The effectiveness of racemic-2'-CdG and of D-2'-CdG in reducing CMV yields in MRC5 cell monolayer cultures was determined by a plaque assay with the results set forth in tables 6 and 7.

[5] = tested on: MRC5 cell monolayer cultures; test: Drug cytotoxicity (gross morphology) in MRC5 cell monolayer cultures; format: cell-based
Protocol: as §2

[6] = tested on: HBV; test: HBV DNA production and replication in 2.2.15 cell cultures; format: cell-based, Hepatitis B virus (HBV); details: for INTRACELLULAR HBV DNA INTEG. / INTRACELLULAR HBV DNA MONO. / INTRACELLULAR HBV DNA RI: 24 hours following 10th day of treatment; for HBV DNA IN CULTURE MEDIUM DAY 0: day 0 of treatment
Protocol: 2'-CdG was tested at three concentrations (50 ng/ml, 500 ng/ml, and 5 ug/ml) against the HBV-producing, human liver cell line, 2.2.15 (Sells et al., J. Virol. 62:2836, 1989). A racemic (D,L) preparation, as well as the purified D and L isomers were tested. For these analyses compounds were tested in duplicate at all concentrations. Ara-AMP and ddG (2'3'-dideoxyguanosine) were used as HBV inhibitory control compounds. […] The nucleoside analog, ddG was used as an additional control compound since ddG has activity against duck hepatitis B virus in chronically infected Peking ducks (Lee et al., Antimicrob. Agents Chemother. 33:336, 1989) and 2'-CdG is also a deoxyguanosine analog.
2.2.15 cells were seeded in 6 well culture plates and grown to confluence over a 10 day period in medium with 5% FBS. Test compounds were then added daily for a continuous 10 day period in medium with 1% dialyzed FBS. […] Compounds were tested, in duplicate cultures, at 3 concentrations covering a 100-fold range. Culture medium (changed daily during the treatment period) was collected and stored for analysis of extracellular (virion) HBV DNA from days 0, 3, 6, and 10 of the treatment period. This allowed for an analysis of the level of HBV virion production during discrete 24 hour intervals and reduced the potential for the buildup of toxic metabolites derived from the test compounds. Treated cells were lysed following the 10th day of treatment for the analysis of intracellular HBV genomic forms. HBV DNA was analyzed in a quantitative manner for (i) overall levels (both extracellular and intracellular DNA) and (ii) the relative rate of HBV replication (intracellular DNA only).
HBV DNA levels were measured by comparison to known amounts of HBV DNA standards applied to every nitrocellulose filter (gel or slot blot) using an AMBIS Beta Scanner. Standard curves, generated by multiple analyses, were used to correlate CPM measurements with relative levels of target HBV DNA. The levels of HBV DNA in each of three classes of intracellular viral genomic forms were individually quantitated: integrated HBV DNA, episomal monomeric genomes and HBV DNA replication intermediates (RI). Integrated HBV DNA was used to normalize the relative amounts of DNA in each lane because the levels of this class of HBV DNA would be expected to remain constant on a per cell basis. The levels of the monomeric HBV genomes and RI were used as an indicator of the relative level of HBV replication.

[7] = tested on: MRC5 cell monolayer cultures; test: Drug cytotoxicity (gross morphology) in MRC5 cell monolayer cultures; format: cell-based; remark: listed apart in the source
[8] = tested on: human CMV; test: In vitro activity against human CMV in human foreskin fibroblast cells; format: cell-based; details: Human betaherpesvirus 5, read-out: ED50 value (median dose at which 50% antiviral efficacy is observed)
Protocol: The in vitro activity of D-2'-CdG was also compared with the current investigational drug of choice for human CMV, DHPG. These experiments were carried out in human foreskin fibroblast cells.

[9] = Human alphaherpesvirus 1, HSV-1, range of tests, read-out: Mic50
[10] = Human alphaherpesvirus 2, HSV-2, read-out: Mic50

Nc1nc2c(ncn2[C@@H]2C[C@H](CO)[C@@H](O)C2)c(=O)[nH]1 (racemic) [D,L-2'-CdG, (±)-2-amino-1,9-dihydro-[(1α,3β,4α)-3-hydroxy-4(hydroxymethyl)cyclopentyl]-6H-purin-6-one]
Ki [1]: 3 µM
VR ([2]; HSV-1, range of tests): 5.3-7.0
EC50 [2, 9]: 0.2 to 0.3 µg/mL (≈ 0.754 to 1.13 µM)
potency relative to ACV ([2]; more potent than ACV): 5-10 times
VR ([3]; HSV-2): 3.7
EC50 [3, 10]: 2.6 µg/mL (≈ 9.8 µM)
CMV Yield ([4]; 0.032 µg/mL): 5.4 log10CCID50/mL
CMV Yield ([4]; 0.1 µg/mL): 5.0 log10CCID50/mL
CMV Yield ([4]; 0.32 µg/mL): 4.5 log10CCID50/mL
CMV Yield ([4]; 1.0 µg/mL): 3.6 log10CCID50/mL
CMV Yield ([4]; 3.2 µg/mL): 1.0 log10CCID50/mL
CMV Yield ([4]; 10 µg/mL): 0 log10CCID50/mL
inhibition at 0.032 µg/mL ([4]; Human betaherpesvirus 5, MRC5, 0.032 µg/mL, read-out: Reduction (%) of CPE by CdG at Time of Harvest): 0%
inhibition at 0.1 µg/mL ([4]; Human betaherpesvirus 5, MRC5, 0.1 µg/mL, read-out: Reduction (%) of CPE by CdG at Time of Harvest): 0%
inhibition at 0.32 µg/mL ([4]; Human betaherpesvirus 5, MRC5, 0.32 µg/mL, read-out: Reduction (%) of CPE by CdG at Time of Harvest): 20%
inhibition at 1 µg/mL ([4]; Human betaherpesvirus 5, MRC5, 1.0 µg/mL, read-out: Reduction (%) of CPE by CdG at Time of Harvest): 95%
inhibition at 3.2 µg/mL ([4]; Human betaherpesvirus 5, MRC5, 3.2 µg/mL, read-out: Reduction (%) of CPE by CdG at Time of Harvest): 100%
inhibition at 10 µg/mL ([4]; Human betaherpesvirus 5, MRC5, 10 µg/mL, read-out: Reduction (%) of CPE by CdG at Time of Harvest): 100%
EC50 ([4]; Human betaherpesvirus 5, MRC5 cells, read-out: MIC50): 0.069 µg/mL (≈ 0.26 µM)
Drug Cytotoxicity (Gross Morphology) ([5]; 0.032 µg/mL): 0
Drug Cytotoxicity (Gross Morphology) ([5]; 0.1 µg/mL): 0
Drug Cytotoxicity (Gross Morphology) ([5]; 1.0 µg/mL): 0
Drug Cytotoxicity (Gross Morphology) ([5]; 32 µg/mL): toxic
INTRACELLULAR HBV DNA INTEG. ([6]; 50ng/ml): 1.3 PG/UG CELL DNA and 1.2 PG/UG CELL DNA
INTRACELLULAR HBV DNA MONO. ([6]; 50ng/ml): 2.1 PG/UG CELL DNA and 1.4 PG/UG CELL DNA
INTRACELLULAR HBV DNA RI ([6]; 50ng/ml): 12 PG/UG CELL DNA and 18 PG/UG CELL DNA
HBV DNA IN CULTURE MEDIUM DAY 0 ([6]; 50ng/ml): 120 pg/mL and 95 pg/mL
HBV DNA IN CULTURE MEDIUM DAY 3 ([6]; 50ng/ml): 88 pg/mL and 75 pg/mL
HBV DNA IN CULTURE MEDIUM DAY 6 ([6]; 50ng/ml): 55 pg/mL and 77 pg/mL
HBV DNA IN CULTURE MEDIUM DAY 10 ([6]; 50ng/ml): 11 pg/mL and 6 pg/mL
INTRACELLULAR HBV DNA INTEG. ([6]; 500ng/ml): 1.4 PG/UG CELL DNA and 1.5 PG/UG CELL DNA
INTRACELLULAR HBV DNA MONO. ([6]; 500ng/ml): 1.8 PG/UG CELL DNA and 2.0 PG/UG CELL DNA
HBV DNA IN CULTURE MEDIUM DAY 0 ([6]; 500ng/ml): 89 pg/mL and 90 pg/mL
HBV DNA IN CULTURE MEDIUM DAY 3 ([6]; 500ng/ml): 41 pg/mL and 55 pg/mL
HBV DNA IN CULTURE MEDIUM DAY 10 ([6]; 500ng/ml): 0.1 pg/mL and 0.2 pg/mL
INTRACELLULAR HBV DNA INTEG. ([6]; 5 ug/ml): 1.0 PG/UG CELL DNA and 1.6 PG/UG CELL DNA
INTRACELLULAR HBV DNA MONO. ([6]; 5 ug/ml): 1.9 PG/UG CELL DNA and 1.7 PG/UG CELL DNA
HBV DNA IN CULTURE MEDIUM DAY 0 ([6]; 5 ug/ml): 87 pg/mL and 88 pg/mL
HBV DNA IN CULTURE MEDIUM DAY 3 ([6]; 5 ug/ml): 16 pg/mL and 24 pg/mL
HBV DNA IN CULTURE MEDIUM DAY 6 ([6]; 5 ug/ml): 0.3 pg/mL and 0.4 pg/mL
HBV DNA IN CULTURE MEDIUM DAY 10 ([6]; 5 ug/ml): 0 pg/mL
MIC ([6]; Hepatitis B virus, 240 h, HBV replication in 2.2.15 cells, read-out: minimal inhibitory concentration): ~0.05 µg/mL (≈ 0.188 µM)
Drug Cytotoxicity (Gross Morphology) ([7]; 0.32 µg/mL): 0
Drug Cytotoxicity (Gross Morphology) ([7]; 3.2 µg/mL): v. sl. toxicity
Drug Cytotoxicity (Gross Morphology) ([7]; 10 µg/mL): sl. toxicity

Nc1ncnc2c1ncn2[C@@H]1O[C@H](COP(=O)(O)O)[C@@H](O)[C@@H]1O [ARA-AMP, adenine arabinoside monophosphate, reference compound]
INTRACELLULAR HBV DNA INTEG. ([6]; 300 UG/ML): 1.3 PG/UG CELL DNA and 1.1 PG/UG CELL DNA
INTRACELLULAR HBV DNA MONO. ([6]; 300 UG/ML): 0.1 PG/UG CELL DNA
INTRACELLULAR HBV DNA RI ([6]; 300 UG/ML): 0.2 PG/UG CELL DNA and 0.3 PG/UG CELL DNA
HBV DNA IN CULTURE MEDIUM DAY 0 ([6]; 300 UG/ML): 100 pg/mL and 95 pg/mL
HBV DNA IN CULTURE MEDIUM DAY 3 ([6]; 300 UG/ML): 25 pg/mL and 30 pg/mL
HBV DNA IN CULTURE MEDIUM DAY 6 ([6]; 300 UG/ML): 0 pg/mL
HBV DNA IN CULTURE MEDIUM DAY 10 ([6]; 300 UG/ML): 0 pg/mL

Nc1nc2c(ncn2COCCO)c(=O)[nH]1 [Acyclovir, acyloguanosine, reference compound]
VR ([2]; HSV-1, range of tests): 5.7-6.5
EC50 [2, 9]: 1.5 to 2.9 µg/mL (≈ 6.66 to 12.9 µM)
VR ([3]; HSV-2): 4.5
EC50 [3, 10]: 5.3 µg/mL (≈ 23.5 µM)

Nc1ncnc2c1ncn2[C@@H]1O[C@H](CO)[C@@H](O)[C@@H]1O [Ara-A, adenosine arabinoside, reference compound]
VR ([2]; HSV-1, range of tests): 1.6-2.5
EC50 ([2]; Human alphaherpesvirus 1, read-out: Mic50): 10 to 34 µg/mL (≈ 37.4 to 127 µM)
VR ([3]; HSV-2): 1.3
EC50 ([3]; Human alphaherpesvirus 2, read-out: Mic50): 50 µg/mL (≈ 187 µM)

Nc1nc2c(ncn2[C@H]2CC[C@@H](CO)O2)c(=O)[nH]1 [DDG, 2'3'-dideoxyguanosine, reference compound]
INTRACELLULAR HBV DNA INTEG. ([6]; 100 uM): 1.6 PG/UG CELL DNA and 1.7 PG/UG CELL DNA
INTRACELLULAR HBV DNA MONO. ([6]; 100 uM): 0.2 PG/UG CELL DNA and 0.1 PG/UG CELL DNA
INTRACELLULAR HBV DNA RI ([6]; 100 uM): 0.1 PG/UG CELL DNA
HBV DNA IN CULTURE MEDIUM DAY 0 ([6]; 100 uM): 49 pg/mL and 58 pg/mL
HBV DNA IN CULTURE MEDIUM DAY 3 ([6]; 100 uM): 35 pg/mL and 41 pg/mL
HBV DNA IN CULTURE MEDIUM DAY 10 ([6]; 100 uM): 0 pg/mL

Nc1nc(O)c2ncn(COC(CO)CO)c2n1 [DHPG, dihydroxy propoxymethyl guanine, reference compound]
EC50 [8]: 0.2 µg/mL (≈ 0.784 µM)

Nc1nc2c(ncn2[C@H]2C[C@H](O)[C@@H](CO)O2)c(=O)[nH]1 [dGuo, reference compound]
Ki [1]: 10.5 µM
